Columns and labels:
[1] = known radioprotective compounds; cited from earlier work
[2] = inhibitor activity on the polymerization of acrylic acid at 60° C.; assay type: biochemical; settings: control 16 hours
Method: The efficiency of the compounds of the invention was investigated in vitro by measuring the inhibitor activity of the compounds on the polymerization of acrylic acid at 60° C., and comparing this activity with that of 3.5-di-tert.butyl-4-hydroxy-toluene (BHT) and L-ascorbic acid. The radical binding activity of the compounds was studied.
The times required to polymerization are given in the next Table.

mice = assay: protection against hepatotoxic dimethylsulfoxide; assay type: in vivo; settings: for death after dimethylsulfoxide / protective activity against dimethylsulfoxide: 100 mg. disulfonic acid or 60 mg. disulfonamide in water and dimethylsulfoxide, i.p. or s.c.
Method: The surrounding carcinogens play an important role in the formation of malignant tumors. These carcinogens contain free radicals or they become carcinogenic in the living organism. […] As the radical reactions may be controlled by the antioxidants, they may be employed as therapeutic and as prophylactic agents as well. […] A hepatotoxic substance had to be administered which was simultaneously carcinogenic. Dimethylsulfoxide was suitable. 0.3 ml. of dimethylsulfoxide/mice was administered i.p. or s.c. in an aqueous solution and as a result 7 animals died within 10 days out of 10 test animals.

cancer of the bladder = settings: large amount of Vitamin-C; cited from earlier work
CFLP mice = assay: protection against LD90 radiodose after i.p. administration; assay type: in vivo; settings: 1000 mg./kg. i.p., preferably 2 hours before LD90 radiodose
Method: The unexpected activity of the new compounds has been observed during a total body irradiation. As test animals CFLP mice of an average weight of 20 to 22 g. were used, each group consisted of 8 male and 8 female animals. The control group was irradiated with 7 Gy (total body irradiation) and the test groups were treated per os for 10 days with the new water-soluble antioxidant of the invention at a daily dose of 0.5 g./kg. The treatment was followed by 7 Gy total body irradiation. There was no significant difference between the various water-soluble antioxidants and as a result within 30 days two animals of the control group were alive and an average of 12 animals survived in the treated group. A significant result was obtained with X^2 probe, p<0.001 and the Dose Modification Factor (DMF), which is the number of dead animals in the control group related to the number of dead animals in the treated group, amounted to 3.5 at LD80. A dose of 1000 mg./kg. bodyweight of MTDQ disulfonic acid Na was administered i.p. preferably 2 hours before irradiation with an LD90 radiodose and a 100% protective activity was obtained. […] It is known that the radioprotective compounds protect the healthy tissue cells better than the malignant tumor cells.

plasma concentration = assay type: in vivo
Excerpt: (§1) The concentration of the found MTDQ was the same as if it had not been the compound of the invention that had been administered, but rather MTDQ. […] The radioprotective activity of the water-soluble antioxidant is presumably due to the fact that the radiation energy is predominantly concentrated on the antioxidant and further that in addition to its membrane stabilizing activity the radicals and peroxides formed in the course of the irradiation, are inactivated by the antioxidant, in the well oxygenated cells.

[3] = detection of MTDQ in the liver; assay type: in vivo; settings: after administration of the compound of the invention
Excerpt: as §1

malignant tumor tissues = settings: cited from earlier work

Br.Br.N=C(N)SCCN [AET, S-2-aminoethyl-isothiuronium-dihydrobromide]
duration of effect after administration [1]: extremely limited | effective doses as radioprotective compound [1]: effective only at subtoxic doses

Cc1cc(C(C)(C)C)c(O)c(C(C)(C)C)c1 [BHT, 3.5-di-tert.butyl-4-hydroxy-toluene]
times required to polymerization ([2]; 0.02%): 120 h

C[S+](C)[O-] [Dimethylsulfoxide]
animals died within 10 days (mice; 0.3 ml./mice i.p. or s.c., out of 10 test animals): 7 animals

O=C1O[C@H]([C@@H](O)CO)C(O)=C1O [L-ascorbic acid]
times required to polymerization ([2]; 0.02%): 18 h | cancer of the bladder by beta-naphthyl-amine (cancer of the bladder): does not cause cancer of the bladder

CC1(C)C=C(CS(=O)(=O)O)c2cc(Cc3ccc4c(c3)C(CS(=O)(=O)O)=CC(C)(C)N4)ccc2N1 [MTDQ disulfonic acid Na, 6,6'-methylene-bis(2,2-dimethyl-4-methanesulfonic acid Na-1,2-dihydroquinoline)]
protective activity (CFLP mice): 100%

CC1=CC(C)(C)Nc2ccc(Cc3ccc4c(c3)C(C)=CC(C)(C)N4)cc21 [MTDQ, 6,6'-methylene-bis(2,2,4-trimethyl-1,2-dihydroquinoline)]
concentration of found MTDQ compared with administration of MTDQ itself (plasma concentration; after administration of the compound of the invention): the same | MTDQ in the plasma as metabolite (desulfonation) (plasma concentration; after administration of the new compounds): found in the plasma | MTDQ in the liver [3]: could be detected in the liver | radiosensibility of malignant tumor tissues (malignant tumor tissues; in vivo): increase the radiosensibility of malignant tumor tissues | reduction of radiodose for the same effect (malignant tumor tissues; radiosensitive tumors): at least 50%

CC1(C)C=C(CS(=O)(=O)O)c2cc(Cc3ccc4c(c3)C(CS(=O)(=O)O)=CC(C)(C)N4)ccc2N1 [MTDQ-disulfonic acid]
times required to polymerization ([2]; concentration not given): 400 h | death after dimethylsulfoxide (mice): no death was observed | protective activity against dimethylsulfoxide (mice): 100%

NCCCNCCSP(=O)(O)O [WR 2721, S-2-(3-aminopropyl)-aminoethyl-phosphorothioic acid]
duration of effect after administration [1]: extremely limited | effective doses as radioprotective compound [1]: effective only at subtoxic doses

NCCS [cysteamine, beta-mercapto-ethyl-amine]
duration of effect after administration [1]: extremely limited | effective doses as radioprotective compound [1]: effective only at subtoxic doses

N[C@@H](CS)C(=O)O [cysteine]
duration of effect after administration [1]: extremely limited | effective doses as radioprotective compound [1]: effective only at subtoxic doses

CC1(C)C=C(CS(N)(=O)=O)c2cc(Cc3ccc4c(c3)C(CS(N)(=O)=O)=CC(C)(C)N4)ccc2N1 [disulfonamide]
death after dimethylsulfoxide (mice): no death was observed | protective activity against dimethylsulfoxide (mice): 100%
